# According to PubChem BioAssay (NCI):
# Several values for one entry are separate records, joined by “and”; a condition that tells them apart may be missing. Equal entries are not always repeated.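 Tested at 5 concentrations; 48 h exposure; 96-well plates; endpoints linearly interpolated, else capped at highest concentration. GI50 marks 50% less growth. Definition used: TGI = concentration required for complete inhibition of growth.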
# What was measured:
# Assay in all cases: NCI tumour cell line growth inhibition, 48 h
# SF-539 CNS = system: SF-539 CNS
# CCRF-CEM leukemia = system: CCRF-CEM leukemia
# KM12 colon = system: KM12 colon
# NCI-H522 lung = system: NCI-H522 lung
# OVCAR-8 ovarian = system: OVCAR-8 ovarian
# A549 NSCLC = system: A549 NSCLC
# EKVX NSCLC = system: EKVX NSCLC
# 786-0 renal = system: 786-0 renal
# SK-MEL-2 melanoma = system: SK-MEL-2 melanoma
# TK-10 renal = system: TK-10 renal
Structure (SMILES),TGI (SF-539 CNS) [µM],TGI (CCRF-CEM leukemia) [µM],TGI (KM12 colon) [µM],TGI (NCI-H522 lung),TGI (OVCAR-8 ovarian) [µM],TGI (A549 NSCLC),TGI (EKVX NSCLC) [µM],TGI (786-0 renal) [µM],TGI (SK-MEL-2 melanoma) [µM],GI50 (SF-539 CNS) [µM],GI50 (TK-10 renal),TGI (TK-10 renal) [µM],GI50 (KM12 colon),GI50 (NCI-H522 lung) [µM],GI50 (OVCAR-8 ovarian) [µM],GI50 (A549 NSCLC) [µM],GI50 (EKVX NSCLC),GI50 (786-0 renal) [µM],GI50 (SK-MEL-2 melanoma) [µM],GI50 (CCRF-CEM leukemia) [µM]
COc1ccc(/C=N/N=C(\N)NO)c(Cl)c1O,46.5,> 100,> 100,42.1 µM,> 100,49.6 µM,> 100,> 100,70.6,,,,,,,,,,,
COCc1c(CO)cnc(C)c1OC1OC(CO)C(O)C(O)C1O (centres undefined),> 100,,> 100,> 100 µM,> 100,> 100 µM,> 100,> 100,> 100,,,,,,,,,,,
COc1c2c3ccccc3nc-2n(C)c2ccccc12,25.9,,> 100,> 100 µM,> 100,> 100 µM,57.2,40.5,> 100,8.83,11.7 µM,58.5,8.63 µM,49.2,25.7,14.3,13.7 µM,6.54,36.8,
CCOC(=O)C(Cc1c[nH]c2ccc([N+](=O)[O-])cc12)(NC(C)=O)C(=O)OCC,> 473,,> 1000,460 µM,> 870,> 1000 µM,> 1000,> 802,> 1000,134,186 µM,> 1000,> 1000 µM,79.5,96.7,67.3,> 1000 µM,143,> 1000,
CCc1c2c(nc3cc4c(c(N)c13)OCO4)-c1cc3c(c(=O)n1C2)COC(=O)[C@]3(O)CC,0.038,,1.66,1.36 µM and 0.663 µM,14.7,1.01 µM and 1.47 µM,48.7,> 100,0.0424,< 0.001,3.03 µM and 0.483 µM,6.25,0.133 µM and 0.0578 µM,,,< 0.001,1.93 µM and 0.962 µM,,,
O=Cc1ccc(-c2ccc(-c3nc4ccccc4[nH]3)cc2)s1,,38.9,69,> 100 µM,87.5,> 100 µM,87,62.2,> 100,,23.5 µM,69.1,22.8 µM,26.3,26.2,40.4,24 µM,19,42,14
O=C1/C=C/[C@@H](O)[C@@H]2C[C@@H](O)C[C@H]2/C=C/CCC[C@H](CCc2ccc(C(F)(F)F)cc2)O1,> 100,49,,0.775 µM,> 100,> 100 µM,6.67,0.378,1.41,0.522,0.449 µM,5.47,,0.282,0.219,0.305,0.252 µM,0.0826,0.349,0.314
N#CC(/C(=N\NC(=O)c1ccncc1)C(=O)Nc1ccc([N+](=O)[O-])cc1[N+](=O)[O-])c1nc(-c2ccc(Br)cc2)cs1 (centres undefined),> 100,> 100,> 100,,> 100,> 100 µM,> 100,> 100,> 100,,,> 100,,,,,,,,
O=C(NCCc1ccccc1)C(c1ccccc1)(c1ccccc1)c1ccccc1,,> 100,11.3,38.1 µM,4.44,5.59 µM,27.1,> 100,29.8,,1.86 µM,9.42,3.19 µM,13.1,1.62,1.75,4.13 µM,5.43,7.04,40
COc1ccc(-c2nsc3c2NC(=O)CC3c2ccc(F)cc2)cc1 (centres undefined),67.8,> 100,> 100,15.6 µM,> 100,> 100 µM,,> 100,12,3.56,6.88 µM,> 100,3.13 µM,2.52,5.66,4.58,,15.2,3.22,5.27
O=C(O)C1=C(C(=O)Nc2ccccc2)C2C=CC1C2 (centres undefined),> 100,> 100,> 100,,> 100,> 100 µM,> 100,> 100,,,,> 100,,,,,,,,
COC(=O)[C@H]1C(=O)[C@@]2(C)[C@H]([C@H](OC(=O)c3ccccc3)[C@]3(O)C[C@H](OC(=O)[C@H](O)[C@@H](NC(=O)c4ccc(F)cc4)c4ccccc4)C(C)=C1C3(C)C)[C@]1(OC(C)=O)CO[C@@H]1C[C@@H]2O,0.0753,> 8.69,,> 7.4 µM,> 25,> 25 µM,> 25,,,0.00749,0.0676 µM,3.91,0.00629 µM,0.0135,0.0171,0.0116,0.0181 µM,0.0805,,0.00685
COc1cccc(Cn2c(-c3nonc3N)nc3ccccc32)c1,0.696,> 100,> 100,0.688 µM,> 100,> 100 µM,,> 100,15.4,0.237,0.728 µM,52.4,0.515 µM,0.245,0.61,0.625,,0.569,0.353,0.348
O=Nc1ccc(O)c2ccccc12,4.05,,6.02,3.48 µM,5,4.79 µM,4.43,12.6,3.72,2.11,2.24 µM,4.66,2.17 µM,1.6,1.57,2.14,1.88 µM,4.1,1.7,
O=C1/C(=C\c2ccc(F)cc2)CN(C(=O)c2ccc([N+](=O)[O-])cc2)C/C1=C\c1ccc(F)cc1,10.2,> 42.6,2.19,30.7 µM,> 100,> 77.3 µM,,4.32,> 100,2.93,5.05 µM,82.7,0.568 µM,4.3,2.97,3.63,,1.89,20.4,1.64
Cc1ccc(S(=O)(=O)Oc2ccc([N+](=O)[O-])cc2[N+](=O)[O-])cc1,18.2,15.7,20,,20.5,22.2 µM,34.4,14.6,16.6,4.54,4.54 µM,17.4,6.7 µM,,4.24,8.53,17.9 µM,3.83,4.31,0.6
CCOC(=O)C1(C#N)C(c2ccccc2)CC(O)(c2ccc([N+](=O)[O-])cc2)C(C(=O)c2ccc([N+](=O)[O-])cc2)C1c1ccccc1 (centres undefined),,> 100,> 100,> 100 µM,> 100,> 100 µM,> 100,> 100,> 100,,,> 100,,,,,,,,
COc1ccc2c(c1O)C(=O)C(CCC(=O)O)CC2 (centres undefined),> 100,> 100,,,> 100,> 100 µM,> 100,> 100,,,,> 100,,,,,,,,
CN(C)CCCNC(=O)c1ccc2oc3cc4ccccc4c(=O)n3c2c1,30.5,,> 50,> 50 µM,> 50,> 50 µM,> 50,> 50,> 50,13.6,10.3 µM,> 50,18.5 µM,17.4,40.5,27.6,> 50 µM,> 50,> 50,
NCCCCCCCCn1c2c(c3ccccc3c1=O)C(=O)c1ccccc1-2,8.62,,4.59,6.37 µM,> 100,50.8 µM,44.7,56.4,6.98,2.84,1.93 µM,3.88,2.12 µM,2.46,3.98,8.93,17.4 µM,21,2.83,
Nc1ccccc1SC(CC(=O)c1ccccc1)c1ccc([N+](=O)[O-])cc1 (centres undefined),31.1,46.7,14.9,27 µM,27.4,32.6 µM,,31,33,17.2,18.6 µM,32.7,3.86 µM,12.9,14.1,16.6,,17.2,18,13.7
CCC(=O)C1(c2ccccc2)CCN(C)CC1,,> 100,> 100,,> 100,> 100 µM,> 100,> 100,,,,> 100,,,,,,,,
CCCCCCCCCCCCCCCCOCC(CN(C)CCN(C)C)OCCCCCCCCCCCCCCCC (centres undefined),,> 100,> 100,> 100 µM,> 100,> 100 µM,> 100,> 100,> 100,,,> 100,,,,,,,,
COc1c2ccoc2cc2oc(=O)ccc12,> 100,> 100,,> 100 µM,> 100,> 100 µM,> 100,> 100,> 100,,,> 100,,,,,,,,
